Test results from patent publication US7138410B2, “Aza-bicyclic N-biarylamides with affinity for the α7 nicotinic acetylcholine receptor” (Bayer HealthCare AG, priority 2002, dated 2006).
Counter-ions that a name gives are not always drawn. Like-named read-outs stand apart in the source and are kept apart here.

Target: T1, α7 nAChR (Rattus norvegicus, UniProt Q05941)
T1 construct: Rat brain tissue (hippocampus or whole brain) is homogenized in homogenization buffer; from tissue; host or cells: rat brain (hippocampus or whole brain), P2 membrane fraction
Test: Affinity for α7 nAChR by inhibition of [3H]-methyllycaconitine binding to rat brain membranes
Procedure: 1. Determination of the Affinity of Test Substances for α7 nAChR by Inhibition of [^3H]-methyllycaconitine Binding to Rat Brain Membranes
The [^3H]-methyllycaconitine binding assay is a modification of the method described by Davies et al. (Neuropharmacol. 1999, 38, 679–690).
Rat brain tissue (hippocampus or whole brain) is homogenized in homogenization buffer (10% w/v, 0.32 M sucrose, 1 mM EDTA, 0.1 mM phenylmethylsulfonyl fluoride (PMSF), 0.01% (w/v) NaN3, pH 7.4, 4° C.) at 600 rpm in a glass homogenizer. The homogenate is centrifuged (1000×g, 4° C., 10 min) and the supernatant is removed. The pellet is resuspended (20% w/v) and the suspension is centrifuged (1000×g, 4° C., 10 min). The two supernatants are combined and centrifuged (15 000×g, 4° C., 30 min). The pellet obtained in this way is referred to as the P2 fraction.
The P2 pellet is washed twice with binding buffer (50 mM Tris-HCl, 1 mM MgCl2, 120 mM NaCl, 5 mM KCl, 2 mM CaCl2, pH 7.4), and centrifuged (15 000×g, 4° C., 30 min).
The P2 membranes are resuspended in binding buffer and incubated in a volume of 250 μl (amount of membrane protein 0.1–0.5 mg) in the presence of 1–5 nM [^3H]-methyllycaconitine, 0.1% (w/v) BSA (bovine serum albumin) and various concentrations of the test substance at 21° C. for 2.5 h. The nonspecific binding is determined by incubation in the presence of 1 μM α-bungarotoxin or 100 μM nicotine or 10 μM MLA (methyllycaconitine).
The incubation is stopped by adding 4 ml of PBS (20 mM Na2HPO4, 5 mM KH2PO4, 150 mM NaCl, pH 7.4, 4° C.) and filtering through type A/E glass fibre filters (Gelman Sciences) which have previously been placed in 0.3% (v/v) polyethyleneimine (PEI) for 3 h. The filters are washed twice with 4 ml of PBS (4° C.), and the bound radioactivity is determined by scintillation measurement. All the assays are carried out in triplicate. The dissociation constant Ki of the test substance is determined from the IC50 of the compounds (concentration of the test substance at which 50% of the ligand bound to the receptor is displaced), the dissociation constant KD and the concentration L of [^3H]-methyllycaconitine using the equation Ki=IC50/(1+L/KD).

[1] = [3H]-methyllycaconitine displacement, rat brain P2 membranes, 21° C., 2.5 h, Ki=IC50/(1+L/KD), read-out: Ki

T1 sequence (Q05941 23-502): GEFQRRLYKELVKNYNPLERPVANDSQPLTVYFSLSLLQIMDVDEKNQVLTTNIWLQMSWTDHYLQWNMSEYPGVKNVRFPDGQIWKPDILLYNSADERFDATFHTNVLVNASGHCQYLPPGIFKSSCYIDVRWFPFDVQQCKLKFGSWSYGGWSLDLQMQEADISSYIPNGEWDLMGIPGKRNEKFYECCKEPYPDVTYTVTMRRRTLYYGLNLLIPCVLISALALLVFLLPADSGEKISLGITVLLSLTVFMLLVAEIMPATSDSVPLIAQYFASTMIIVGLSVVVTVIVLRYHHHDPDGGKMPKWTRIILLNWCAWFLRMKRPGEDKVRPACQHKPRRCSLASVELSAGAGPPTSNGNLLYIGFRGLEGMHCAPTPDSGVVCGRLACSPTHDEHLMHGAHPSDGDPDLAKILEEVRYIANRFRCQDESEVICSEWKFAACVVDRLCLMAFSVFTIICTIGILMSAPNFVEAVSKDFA

Structure (SMILES)	Ki [nM]	Ki [1] [nM]
NC(=O)c1ccc(-c2ccc(NC(=O)[C@H]3CN4CCC3CC4)cc2)cc1 [Example 21, (3R)-N-[4′-(Aminocarbonyl)-1,1′-biphenyl-4-yl]-1-azabicyclo[2.2.2]octane-3-carboxamide Hydrochloride]	98	
CC(C)NC(=O)OCc1ccc(-c2ccc(NC(=O)[C@H]3CN4CCC3CC4)cc2)cc1 [Example 24, (4′-{[(3R)-1-Azabicyclo[2.2.2]oct-3-ylcarbonyl]amino}-1,1′-biphenyl-4-yl)methyl Isopropylcarbamate]		230
O=C(Nc1ccc(-c2ccc(CO)c(F)c2)cc1)[C@H]1CN2CCC1CC2 [Example 22, (3R)-N-[4′-(Hydroxymethyl)-3′-fluoro-1,1′-biphenyl-4-yl]-1-azabicyclo[2.2.2]octane-3-carboxamide]	58	
CC(C)(O)c1ccc(-c2ccc(NC(=O)[C@H]3CN4CCC3CC4)cc2)cc1 [Example 20, (3R)-N-[4′-(1-Hydroxy-1-methylethyl)-1,1′-biphenyl-4-yl]-1-azabicyclo[2.2.2]octane-3-carboxamide]	10	
O=C(Nc1ccc(-c2ccc(CO)cc2)cc1)[C@@H]1CN2CCC1CC2 [Example 15, (3S)-N-[4′-(Hydroxymethyl)-1,1′-biphenyl-4-yl]-1-azabicyclo[2.2.2]octane-3-carboxamide Hydrochloride]	39	
O=C(CC1CN2CCC1CC2)Nc1cccc(-c2ccc(CO)cc2)c1 (stereo not shown) [Example 9, 2-(1-Azabicyclo[2.2.2]oct-3-yl)-N-[4′-(hydroxymethyl)-1,1′-biphenyl-3-yl]acetamide Hydrochloride]	519	
CC(=O)c1ccc(-c2ccc(NC(=O)CC3CN4CCC3CC4)cc2)cc1 (stereo not shown) [Example 26]		310
O=C(Nc1ccc(-c2ccc(CO)cc2)cc1)[C@H]1CN2CCC1CC2 [Example 14, (3R)-N-[4′-(Hydroxymethyl)-1,1′-biphenyl-4-yl]-1-azabicyclo[2.2.2]octane-3-carboxamide Hydrochloride]	20	
CNC(=O)OCc1ccc(-c2ccc(NC(=O)[C@H]3CN4CCC3CC4)cc2)cc1 [Example 23, (4′-{[(3R)-1-Azabicyclo[2.2.2]oct-3-ylcarbonyl]amino}-1,1′-biphenyl-4-yl)methyl Methylcarbamate]	39	
CC(=O)c1ccccc1-c1ccc(NC(=O)CC2CN3CCC2CC3)cc1 (stereo not shown) [Example 31]		420
